Source: patent US20070010401A1, “Synergistic combination of a glyphosate herbicide and a triazole fungicide” (Cheminova A/S, priority 2005, published 2007)

Key:
Phakopsora pachyrhizi [1] = experiment: Protective treatment of glyphosate resistant soybean plants three days prior to inoculation with soybean rust; type: in vivo; conditions: treated 3 days prior to inoculation, assessed four weeks after inoculation
From the text: (§1) In the Colby method, also referred to as the Limpels method, the action to be expected (E) for a given active ingredient combination obeys the so-called Colby formula. According to Colby, the expected (additive) action of active ingredients I+II using p+q ppm of active ingredient is: [formula] where ppm equals the milligrams of active ingredient (=a.i.) per liter of spray mixture; X equals the % action by component (a) using p ppm of active ingredient; Y equals the % action by component (b) using q ppm of active ingredient. If the action actually observed (O) is greater than the expected action (E), then the action of the combination is superadditive, i.e. there is a synergistic effect. For a more detailed description of the Colby formula, see Colby, S. R. “Calculating synergistic and antagonistic responses of herbicide combination,” Weeds, Vol. 15, pages 20-22; (1967); see also Limpel et al., Proc. NEWCC 16: 48-53 (1962), both of which are herein incorporated by reference in their entirety.
Protective Treatment. […] Four weeks after inoculation, disease incidence and severity is determined on the first trifoliate. […]

Phakopsora pachyrhizi [2] = experiment: Curative treatment of glyphosate resistant soybean plants three days after inoculation with soybean rust; type: in vivo; conditions: treated 3 days after inoculation, assessed four weeks after inoculation
From the text: as §1
Curative treatment. […] Four weeks after inoculation, disease incidence and severity is determined on the first trifoliate. […]

| SMILES | Observed control (O) % (Phakopsora pachyrhizi [1]; 100 g AI/hectare) | Observed control (O) % (Phakopsora pachyrhizi [2]; 100 g AI/hectare) | Observed control (O) % (Phakopsora pachyrhizi [1]; 30 g AI/hectare) | Observed control (O) % (Phakopsora pachyrhizi [2]; 30 g AI/hectare) |
| --- | --- | --- | --- | --- |
| O=C(O)CNCP(=O)(O)O [Glyphosate (acid), N-(phosphonomethyl)glycine] | 82% | 27% | – | – |
| OC(Cn1cncn1)(c1ccc(F)cc1)c1ccccc1F (stereo not shown) [Flutriafol, flutriafol] | – | – | 11% | 39% |
